According to the NIST ThermoML archive (doi:10.1021/acs.jced.8b00521):
± gives the expanded uncertainty stated by the source.

Test: xn = mol fraction of the nth substance listed
Settings: Liquid; for viscosity: Capillary tube (Ostwald / Ubbelohde) method; for mass density: Vibrating tube method

CCCCCCCC(=O)OCC [ethyl octanoate] + CCCCCCCCCCCC(=O)OC
Settings | mass density, 313.15 K [kg/m3] | mass density, 323.15 K [kg/m3] | viscosity, 313.15 K [mPa·s] | viscosity, 323.15 K [mPa·s]
100 kPa, x2 = 0.1 | – | 841 ± 2 | – | 1.03 ± 0.03
100 kPa, x2 = 0.1999 | – | 842 ± 2 | – | 1.09 ± 0.03
100 kPa, x2 = 0.3001 | – | 842 ± 2 | – | 1.13 ± 0.04
100 kPa, x2 = 0.4 | – | 843 ± 2 | – | 1.19 ± 0.04
100 kPa, x2 = 0.4999 | – | 843 ± 2 | – | 1.26 ± 0.04
100 kPa, x2 = 0.6001 | – | 843 ± 2 | – | 1.33 ± 0.04
100 kPa, x2 = 0.6999 | – | 844 ± 2 | – | 1.42 ± 0.04
100 kPa, x2 = 0.8001 | – | 844 ± 2 | – | 1.51 ± 0.05
100 kPa, x2 = 0.9 | – | 844 ± 2 | – | 1.61 ± 0.05
2930 kPa, x2 = 0.1 | – | 843 ± 2 | – | 1.04 ± 0.03
2930 kPa, x2 = 0.1999 | – | 843 ± 2 | – | 1.11 ± 0.03
2940 kPa, x2 = 0.3001 | – | 844 ± 2 | – | 1.18 ± 0.04
2960 kPa, x2 = 0.6999 | – | 845 ± 2 | – | 1.45 ± 0.05
2980 kPa, x2 = 0.6001 | – | 845 ± 2 | – | 1.38 ± 0.04
3010 kPa, x2 = 0.4999 | – | 844 ± 2 | – | 1.31 ± 0.04
3020 kPa, x2 = 0.4 | – | 844 ± 2 | – | 1.24 ± 0.04
3020 kPa, x2 = 0.9 | – | 846 ± 2 | – | 1.65 ± 0.05
3040 kPa, x2 = 0.8001 | – | 846 ± 2 | – | 1.57 ± 0.05
6010 kPa, x2 = 0.8001 | – | 848 ± 2 | – | 1.61 ± 0.05
6020 kPa, x2 = 0.3001 | – | 845 ± 2 | – | 1.22 ± 0.04
6030 kPa, x2 = 0.4999 | – | 846 ± 2 | – | 1.35 ± 0.04
6030 kPa, x2 = 0.6999 | – | 847 ± 2 | – | 1.5 ± 0.05
6040 kPa, x2 = 0.6001 | – | 847 ± 2 | – | 1.42 ± 0.04
6060 kPa, x2 = 0.1 | – | 844 ± 2 | – | 1.08 ± 0.03
6060 kPa, x2 = 0.1999 | – | 845 ± 2 | – | 1.15 ± 0.04
6080 kPa, x2 = 0.4 | – | 846 ± 2 | – | 1.29 ± 0.04
6080 kPa, x2 = 0.9 | – | 849 ± 2 | – | 1.7 ± 0.05
8900 kPa, x2 = 0.1 | 855 ± 2 | – | 1.33 ± 0.04 | –
8900 kPa, x2 = 0.1999 | 855 ± 2 | – | 1.42 ± 0.04 | –
8930 kPa, x2 = 0.6999 | – | 849 ± 2 | – | 1.56 ± 0.05
8960 kPa, x2 = 0.6999 | 858 ± 2 | – | 1.93 ± 0.06 | –
8980 kPa, x2 = 0.8001 | – | 850 ± 2 | – | 1.67 ± 0.05
8980 kPa, x2 = 0.9 | – | 850 ± 2 | – | 1.75 ± 0.05
9000 kPa, x2 = 0.6001 | 857 ± 2 | – | 1.81 ± 0.06 | –
9010 kPa, x2 = 0.4 | 856 ± 2 | – | 1.59 ± 0.05 | –
9010 kPa, x2 = 0.9 | 859 ± 2 | – | 2.15 ± 0.07 | –
9030 kPa, x2 = 0.3001 | 855 ± 2 | – | 1.52 ± 0.05 | –
9030 kPa, x2 = 0.6001 | – | 849 ± 2 | – | 1.46 ± 0.05
9030 kPa, x2 = 0.8001 | 858 ± 2 | – | 2.06 ± 0.06 | –
9040 kPa, x2 = 0.1 | – | 846 ± 2 | – | 1.11 ± 0.03
9050 kPa, x2 = 0.4999 | 857 ± 2 | – | 1.7 ± 0.05 | –
9070 kPa, x2 = 0.3001 | – | 847 ± 2 | – | 1.26 ± 0.04
9070 kPa, x2 = 0.4999 | – | 848 ± 2 | – | 1.39 ± 0.04
9090 kPa, x2 = 0.4 | – | 847 ± 2 | – | 1.32 ± 0.04
9140 kPa, x2 = 0.1999 | – | 847 ± 2 | – | 1.19 ± 0.04
11900 kPa, x2 = 0.4 | – | 849 ± 2 | – | 1.36 ± 0.04
11910 kPa, x2 = 0.6001 | 859 ± 2 | – | 1.87 ± 0.06 | –
11950 kPa, x2 = 0.4 | 858 ± 2 | – | 1.63 ± 0.05 | –
11960 kPa, x2 = 0.6001 | – | 850 ± 2 | – | 1.5 ± 0.05
11970 kPa, x2 = 0.4999 | – | 850 ± 2 | – | 1.43 ± 0.04
11980 kPa, x2 = 0.3001 | 857 ± 2 | – | 1.57 ± 0.05 | –
11990 kPa, x2 = 0.3001 | – | 849 ± 2 | – | 1.29 ± 0.04
11990 kPa, x2 = 0.8001 | – | 852 ± 2 | – | 1.72 ± 0.05
12000 kPa, x2 = 0.9 | – | 852 ± 2 | – | 1.79 ± 0.06
12010 kPa, x2 = 0.1 | 856 ± 2 | – | 1.37 ± 0.04 | –
12010 kPa, x2 = 0.1999 | 856 ± 2 | – | 1.47 ± 0.05 | –
12010 kPa, x2 = 0.8001 | 860 ± 2 | – | 2.11 ± 0.07 | –
12020 kPa, x2 = 0.1 | – | 847 ± 2 | – | 1.14 ± 0.04
12020 kPa, x2 = 0.1999 | – | 848 ± 2 | – | 1.22 ± 0.04
12020 kPa, x2 = 0.4999 | 858 ± 2 | – | 1.74 ± 0.05 | –
12060 kPa, x2 = 0.6999 | – | 851 ± 2 | – | 1.6 ± 0.05
12070 kPa, x2 = 0.9 | 860 ± 2 | – | 2.22 ± 0.07 | –
12090 kPa, x2 = 0.6999 | 860 ± 2 | – | 1.99 ± 0.06 | –
14960 kPa, x2 = 0.6001 | – | 852 ± 2 | – | 1.55 ± 0.05
14960 kPa, x2 = 0.9 | – | 854 ± 2 | – | 1.85 ± 0.06
14970 kPa, x2 = 0.8001 | 862 ± 2 | 853 ± 2 | 2.16 ± 0.07 | 1.76 ± 0.05
14980 kPa, x2 = 0.6999 | 861 ± 2 | 853 ± 2 | 2.03 ± 0.06 | 1.65 ± 0.05
14990 kPa, x2 = 0.1 | – | 849 ± 2 | – | 1.18 ± 0.04
14990 kPa, x2 = 0.1999 | – | 850 ± 2 | – | 1.26 ± 0.04
15010 kPa, x2 = 0.4 | – | 851 ± 2 | – | 1.4 ± 0.04
15010 kPa, x2 = 0.6001 | 861 ± 2 | – | 1.92 ± 0.06 | –
15020 kPa, x2 = 0.3001 | 859 ± 2 | 850 ± 2 | 1.62 ± 0.05 | 1.33 ± 0.04
15040 kPa, x2 = 0.4999 | 860 ± 2 | 851 ± 2 | 1.79 ± 0.06 | 1.48 ± 0.05
15050 kPa, x2 = 0.1 | 858 ± 2 | – | 1.41 ± 0.04 | –
15050 kPa, x2 = 0.1999 | 858 ± 2 | – | 1.51 ± 0.05 | –
15050 kPa, x2 = 0.9 | 862 ± 2 | – | 2.28 ± 0.07 | –
15090 kPa, x2 = 0.4 | 859 ± 2 | – | 1.69 ± 0.05 | –
